Measured values taken from patent US4065557A, “Amino sugars and their use in improving the meat:fat ratio in animals” (Bayer Aktiengesellschaft, priority 1974, dated 1977).

Assays:
pancreas-α-amylase = target: T1, pancreas-α-amylase (Sus scrofa, UniProt P00690); assay: In vitro amylase test; type: biochemical; conditions: isolated product; starch, pH 6.9, 35° C
T1 sequence (P00690 16-511): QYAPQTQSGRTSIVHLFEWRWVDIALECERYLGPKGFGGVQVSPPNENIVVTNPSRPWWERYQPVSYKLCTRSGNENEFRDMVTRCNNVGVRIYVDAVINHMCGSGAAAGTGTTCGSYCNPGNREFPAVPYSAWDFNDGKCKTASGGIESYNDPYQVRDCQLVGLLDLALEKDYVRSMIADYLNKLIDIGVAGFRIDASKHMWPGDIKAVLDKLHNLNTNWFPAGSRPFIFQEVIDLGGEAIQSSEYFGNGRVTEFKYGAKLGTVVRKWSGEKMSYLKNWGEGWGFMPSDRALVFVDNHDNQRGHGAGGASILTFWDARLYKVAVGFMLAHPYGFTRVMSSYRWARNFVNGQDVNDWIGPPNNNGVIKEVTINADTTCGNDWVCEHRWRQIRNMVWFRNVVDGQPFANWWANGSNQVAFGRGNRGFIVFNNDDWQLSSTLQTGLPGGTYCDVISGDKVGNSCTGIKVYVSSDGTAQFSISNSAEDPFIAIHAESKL
Description: One amylase unit (AU) is the amount of enzyme which under the test conditions specified below splits 1 μequivalent of glucoside bonds in the starch per minute. […] To carry out the test, 0.1 ml of amylase solution (20-22 AU/ml) are mixed with 0-10 μg of inhibitor or 0-20 μl of the solution to be tested in 0.4 ml of 0.02 M sodium glycerophosphate buffer/0.001 M CaCl2, pH 6.9, and the mixture is equilibrated for 10-20 minutes in a water bath at 35° C. […] To develop the color, the batch is heated for 5 minutes on a boiling water bath and then cooled, and 10 ml of distilled water are added. The extinction at 540 nm is measured against a correspondingly made-up blank without amylase. […] The percentage inhibition is plotted as a function of the quotient [formula]

saccharase = target: T2, saccharase (Sus scrofa, UniProt P56729); assay: In vitro saccharase test; type: biochemical, pig; conditions: for saccharase inhibitor specific activity: sucrose, pH 6.0, 35° C
T2 construct: from tissue; host or cells: mucous membrane of the small intestine of the pig, solubilized according to Borgstrom and Dahlquist 1958
T2 sequence (P56729 with tags, fused parts or gaps limits assumed): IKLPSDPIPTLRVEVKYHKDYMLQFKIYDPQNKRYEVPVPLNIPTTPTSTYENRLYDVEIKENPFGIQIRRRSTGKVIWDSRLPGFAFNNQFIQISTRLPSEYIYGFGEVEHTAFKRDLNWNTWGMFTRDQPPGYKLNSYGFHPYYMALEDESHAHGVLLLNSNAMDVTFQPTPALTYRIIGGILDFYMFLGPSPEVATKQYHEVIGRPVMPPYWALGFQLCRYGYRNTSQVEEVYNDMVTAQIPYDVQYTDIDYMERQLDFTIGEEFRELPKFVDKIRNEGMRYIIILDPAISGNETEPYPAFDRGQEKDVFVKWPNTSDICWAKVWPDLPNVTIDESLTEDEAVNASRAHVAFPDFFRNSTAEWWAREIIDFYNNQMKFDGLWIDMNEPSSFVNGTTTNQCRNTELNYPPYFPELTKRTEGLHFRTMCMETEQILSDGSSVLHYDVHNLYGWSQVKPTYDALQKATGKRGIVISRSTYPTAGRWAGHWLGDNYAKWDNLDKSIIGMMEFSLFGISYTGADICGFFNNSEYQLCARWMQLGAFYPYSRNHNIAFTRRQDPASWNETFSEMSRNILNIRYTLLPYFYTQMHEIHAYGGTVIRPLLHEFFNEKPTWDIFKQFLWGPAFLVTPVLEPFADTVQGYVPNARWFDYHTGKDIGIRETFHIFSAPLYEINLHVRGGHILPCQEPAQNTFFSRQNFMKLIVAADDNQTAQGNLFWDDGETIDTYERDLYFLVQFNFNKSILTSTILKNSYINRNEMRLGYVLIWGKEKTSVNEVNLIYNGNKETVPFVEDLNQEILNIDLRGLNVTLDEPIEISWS
T2 sequence (P56729 with tags, fused parts or gaps partner limits assumed): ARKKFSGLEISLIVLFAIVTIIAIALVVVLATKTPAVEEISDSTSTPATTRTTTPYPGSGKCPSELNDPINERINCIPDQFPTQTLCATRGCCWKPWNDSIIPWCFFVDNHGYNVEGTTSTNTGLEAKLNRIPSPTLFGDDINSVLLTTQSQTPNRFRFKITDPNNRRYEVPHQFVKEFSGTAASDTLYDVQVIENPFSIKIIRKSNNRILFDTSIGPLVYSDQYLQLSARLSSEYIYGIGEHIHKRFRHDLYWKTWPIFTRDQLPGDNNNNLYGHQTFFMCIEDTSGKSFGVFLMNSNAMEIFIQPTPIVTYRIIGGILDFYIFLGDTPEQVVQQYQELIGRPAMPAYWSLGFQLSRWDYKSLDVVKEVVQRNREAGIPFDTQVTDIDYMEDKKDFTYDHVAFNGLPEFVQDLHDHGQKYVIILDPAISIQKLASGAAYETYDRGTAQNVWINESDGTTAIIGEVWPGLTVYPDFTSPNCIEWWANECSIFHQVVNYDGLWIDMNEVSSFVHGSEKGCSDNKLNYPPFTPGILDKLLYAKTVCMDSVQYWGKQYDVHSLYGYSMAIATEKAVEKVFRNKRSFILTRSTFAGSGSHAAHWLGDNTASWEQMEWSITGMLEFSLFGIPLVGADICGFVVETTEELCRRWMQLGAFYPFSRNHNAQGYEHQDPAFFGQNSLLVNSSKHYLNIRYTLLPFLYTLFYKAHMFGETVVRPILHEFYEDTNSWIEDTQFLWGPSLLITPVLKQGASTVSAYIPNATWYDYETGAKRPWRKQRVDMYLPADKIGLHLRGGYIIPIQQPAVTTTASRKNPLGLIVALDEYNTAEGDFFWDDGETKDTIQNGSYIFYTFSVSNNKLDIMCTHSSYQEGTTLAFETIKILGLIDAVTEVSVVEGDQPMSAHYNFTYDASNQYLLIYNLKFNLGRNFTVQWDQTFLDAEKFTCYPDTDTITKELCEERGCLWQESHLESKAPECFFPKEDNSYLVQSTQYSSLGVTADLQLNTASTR
Description: One saccharase inhibitor unit (SIU) is defined as the amount of inhibitor which inhibits two saccharase units to the extent of 50%. One saccharase unit (SU) is the amount of enzyme which under the test conditions specified splits 1 μmol of sucrose to glucose and fructose per minute. The μmols of glucose formed are determined quantitatively by means of the glucose oxidase reaction under conditions under which a further splitting of the sucrose by the saccharase no longer takes place. To carry out the test, 0.05 ml of solubilized saccharase [from the mucous membrane of the small intestine of the pig, according to B. Borgstrom, A. Dahlquist, Acta Chem. Scand. […] The mixture is equilibrated for 10 minutes at 35° C and 0.1 ml of an 0.05 M sucrose solution in 0.1 m sodium maleate buffer of pH 6.0, pre-warmed to 35° C, is then added. The mixture is incubated for 20 minutes at 35° C, the saccharase reaction is stopped by addition of 1 ml of glucose oxidase reagent, and the incubation is continued for a further 30 minutes at 35° C. […] Thereafter, 1 ml of 50% strength H2 SO4 is added and a measurement carried out at 545 nm against a corresponding blank.

Solubility = type: physicochemical
starch digestion = assay: In vivo starch digestion (starch feeding test)

Structure (SMILES) | amylase inhibitor specific activity (pancreas-α-amylase) | in vitro saccharase inhibition (in words) (saccharase; in vitro) | saccharase inhibitor specific activity (saccharase) | saccharase inhibitor specific activity (saccharase; listed as compound with 2 glucose units) | saccharase inhibitor specific activity (saccharase; listed as compound with 2 units) | saccharase inhibitor specific activity (saccharase; listed as compound with two glucose units) | solubility in water (Solubility; amorphous solid) | in vivo inhibition of starch digestion (in words) (starch digestion) | in vitro saccharase inhibiting activity (saccharase; isomer isolated on Dowex 50 W X 4) | saccharase inhibition relative to the derivative having two units (saccharase; in vitro) | saccharase inhibitor specific activity (saccharase; listed as compound with one glucose unit) | solubility (Solubility; water, dimethylformamide, dimethylsulfoxide, methanol and hot ethanol)
C[C@H]1O[C@H](O[C@H]2[C@H](O)[C@@H](O)[C@@H](O[C@H]3[C@H](O)[C@@H](O)C(O)O[C@@H]3CO)O[C@@H]2CO)[C@H](O)[C@@H](O)[C@@H]1N[C@H]1C=C(CO)[C@@H](O)[C@H](O)[C@H]1O (stereo partly drawn) [compound having 2 glucose units, O-{4,6-bisdesoxy-4-[1 S-(1,4,6/5)-4,5,6-trihydroxy-3-hydroxymethylcyclohex-2-en-1-ylamino]-α-D-glucopyranosyl}-(1→4)-O-α-D-glucopyranosyl-(1→4)-D-glucopyranose] | 0.3 × 10^6 AIU/g | most pronounced | 50,000 SIU/g | 60,000 SIU/g | 68,000 SIU/g | 65,000 SIU/g | readily water-soluble | much higher than would be expected from in vitro amylase inhibition |  |  |  | 
C[C@H]1O[C@H](O[C@H]2[C@H](O)[C@@H](O)[C@@H](O[C@H]3[C@H](O)[C@@H](O)[C@@H](O[C@H]4[C@H](O)[C@@H](O)C(O)O[C@@H]4CO)O[C@@H]3CO)O[C@@H]2CO)[C@H](O)[C@@H](O)[C@@H]1N[C@H]1C=C(CO)[C@@H](O)[C@H](O)[C@H]1O (stereo partly drawn) [isomer of Formula V, O-{4,5-bisdesoxy-4-[1S-(1,4,6/5)-4,5,6-trihydroxy-3-hydroxymethylcyclohex-2-en-1-ylamino]-α-D-glucopyranosyl}-(1→4)-O-α-D-glucopyranosyl-(1→4)-O-α-D-glucopyranosyl-(1→4)-D-glycopyranose] |  |  |  |  |  |  |  |  | 19,000 SIE/g |  |  | 
C[C@H]1O[C@H](O[C@H]2[C@H](O)[C@@H](O)C(O)O[C@@H]2CO)[C@H](O)[C@@H](O)[C@@H]1N[C@H]1C=C(CO)[C@@H](O)[C@H](O)[C@H]1O (stereo partly drawn) [compound having one glucose unit, O-{4,6-bisdesoxy-4-[1 S-(1,4,6/5)-4,5,6-trihydroxy-3-hydroxymethylcyclohex-2-en-1-ylamino]-α-D-glucopyranosyl}-(1→4)-D-glucopyranose] | 0.3 × 10^6 AIU/g |  | 30,000 SIU/g |  |  |  |  | much higher than would be expected from in vitro amylase inhibition |  | only half as much | 35,000 SIU/g | good solubility
